Measurements taken from the NIST ThermoML archive (doi:10.1021/je900113f).

Conditions: 101.33 kPa, Liquid, Vibrating wire viscometry

CC(C)CCCCCCCOC(=O)c1ccccc1C(=O)OCCCCCCCC(C)C
Conditions	viscosity [mPa·s]
283.03 K	264.88
288.23 K	176.35
288.36 K	173.92
293.23 K	122.34
293.93 K	116.51
298.13 K	87.76
298.58 K	85.3
303.18 K	64.51
303.5 K	63.25
